Results reported in the supplement of paper PMC10307832.

Experiments:
Experiment in all cases: relative viability (nuclei count vs DMSO), 5 days (fraction); higher = more cells survive
AGI-6780 + Lapatinib = compound: O=C(Nc1cccc(C(F)(F)F)c1)Nc1cc(S(=O)(=O)NC2CC2)ccc1-c1ccsc1 [AGI-6780] + CS(=O)(=O)CCNCc1ccc(-c2ccc3ncnc(Nc4ccc(OCc5cccc(F)c5)c(Cl)c4)c3c2)o1 [Lapatinib] (partner 2 µM)
Procedure, shortened: (§1)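 The day after seeding in 1536-well plates, lung cancer cell lines were treated by pin tool with a single drug, or with a fixed anchor-drug dose together with five library-drug doses (not always all listed) in √10 steps. After 5 days, a combined fix-and-stain solution (final 0.05% Triton X-100, 1% formaldehyde, 1 ug/ml Hoechst) was added. Nuclei counted on 4× images gave relative viability as treated counts over vehicle counts, reported as the median of duplicate plates.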

AGI-6780 + Decitabine = compound: O=C(Nc1cccc(C(F)(F)F)c1)Nc1cc(S(=O)(=O)NC2CC2)ccc1-c1ccsc1 [AGI-6780] + Nc1ncn([C@H]2C[C@H](O)[C@@H](CO)O2)c(=O)n1 [Decitabine] (partner 2 µM)
Procedure, shortened: as §1

AGI-6780 + Olaparib = compound: O=C(Nc1cccc(C(F)(F)F)c1)Nc1cc(S(=O)(=O)NC2CC2)ccc1-c1ccsc1 [AGI-6780] + O=C(c1cc(Cc2n[nH]c(=O)c3ccccc23)ccc1F)N1CCN(C(=O)C2CC2)CC1 [Olaparib] (partner 8 µM)
Procedure, shortened: as §1

AGI-6780 + AZD7762 = compound: O=C(Nc1cccc(C(F)(F)F)c1)Nc1cc(S(=O)(=O)NC2CC2)ccc1-c1ccsc1 [AGI-6780] + NC(=O)Nc1cc(-c2cccc(F)c2)sc1C(=O)N[C@H]1CCCNC1 [AZD7762] (partner 0.2 µM)
Procedure, shortened: as §1

| Cell Line | relative viability (AGI-6780 + Lapatinib; first compound 0.08 µM) | relative viability (AGI-6780 + Lapatinib; first compound 0.253 µM) | relative viability (AGI-6780 + Lapatinib; first compound 0.8 µM) | relative viability (AGI-6780 + Lapatinib; first compound 8 µM) | relative viability (AGI-6780 + Decitabine; first compound 0.08 µM) | relative viability (AGI-6780 + Decitabine; first compound 0.253 µM) | relative viability (AGI-6780 + Decitabine; first compound 0.8 µM) | relative viability (AGI-6780 + Decitabine; first compound 2.53 µM) | relative viability (AGI-6780 + Decitabine; first compound 8 µM) | relative viability (AGI-6780 + Olaparib; first compound 0.08 µM) | relative viability (AGI-6780 + Olaparib; first compound 0.253 µM) | relative viability (AGI-6780 + Olaparib; first compound 0.8 µM) | relative viability (AGI-6780 + Olaparib; first compound 2.53 µM) | relative viability (AGI-6780 + Olaparib; first compound 8 µM) | relative viability (AGI-6780 + AZD7762; first compound 0.08 µM) | relative viability (AGI-6780 + AZD7762; first compound 0.253 µM) | relative viability (AGI-6780 + AZD7762; first compound 0.8 µM) | relative viability (AGI-6780 + AZD7762; first compound 2.53 µM) | relative viability (AGI-6780 + AZD7762; first compound 8 µM) | relative viability (AGI-6780 + Lapatinib; first compound 2.53 µM) |
| --- | --- | --- | --- | --- | --- | --- | --- | --- | --- | --- | --- | --- | --- | --- | --- | --- | --- | --- | --- | --- |
| NCI-H1395 | 0.941 | 1.06 | 1.01 | 1.04 | 0.738 | 0.789 | 0.747 | 0.676 | 0.742 | 0.474 | 0.475 | 0.474 | 0.424 | 0.439 | 0.366 | 0.4 | 0.412 | 0.428 | 0.387 |  |
| NCI-H1437 | 0.825 | 0.834 | 0.863 | 0.941 | 0.572 | 0.587 | 0.594 | 0.583 | 0.576 | 0.677 | 0.638 | 0.639 | 0.63 | 0.572 | 1.11 | 1.11 | 1.28 | 1.16 | 1.17 | 0.838 |
| NCI-H1651 | 0.83 | 0.911 | 0.959 | 1.04 | 0.557 | 0.627 | 0.619 | 0.535 | 0.653 | 0.187 | 0.181 | 0.169 | 0.169 | 0.18 | 0.42 | 0.495 | 0.463 | 0.518 | 0.434 | 0.805 |
| NCI-H1666 | 0.784 | 0.597 | 0.578 | 0.73 | 0.665 | 0.78 | 0.733 | 0.663 | 0.72 | 0.703 | 0.714 | 0.734 | 0.766 | 0.75 | 0.809 | 0.977 | 0.842 | 0.926 | 0.898 |  |
| NCI-H1734 | 0.961 | 1.09 | 1.07 | 1.07 | 0.506 | 0.566 | 0.528 | 0.372 | 0.48 | 0.722 | 0.633 | 0.654 | 0.492 | 0.574 | 0.634 | 0.589 | 0.618 | 0.451 | 0.606 |  |
| NCI-H1755 | 1.03 | 0.959 | 0.984 | 1.04 | 0.718 | 0.758 | 0.691 | 0.604 | 0.689 | 0.912 | 0.868 | 0.852 | 0.766 | 0.83 | 0.478 | 0.417 | 0.485 | 0.419 | 0.435 | 0.936 |
| NCI-H1792 | 0.805 | 0.893 | 1.14 | 0.914 | 0.665 | 0.437 | 0.536 |  | 0.49 | 0.266 | 0.404 | 0.576 |  | 0.292 | 1.05 | 0.596 | 0.769 |  | 0.752 | 0.883 |
| NCI-H1793 | 0.819 | 0.811 | 0.779 | 0.723 | 0.519 | 0.539 | 0.415 | 0.342 | 0.549 | 0.904 | 0.845 | 0.902 | 0.695 | 0.805 | 0.747 | 0.517 | 0.703 | 0.36 | 0.409 | 0.491 |
| NCI-H1915 | 0.96 | 0.989 | 0.988 | 0.977 | 0.276 | 0.267 | 0.283 | 0.255 | 0.26 | 0.25 | 0.292 | 0.258 | 0.208 | 0.26 | 0.715 | 0.713 | 0.729 | 0.637 | 0.698 | 0.982 |
| NCI-H1944 | 0.928 | 0.861 | 0.784 | 0.92 | 0.448 | 0.445 | 0.399 |  | 0.425 | 0.464 | 0.412 | 0.448 |  | 0.395 | 0.538 | 0.516 | 0.515 |  | 0.55 | 0.544 |
| NCI-H1975 | 0.861 | 1.01 | 0.801 | 0.951 | 0.38 | 0.427 | 0.38 | 0.377 | 0.382 | 0.78 | 0.731 | 0.804 | 0.722 | 0.806 | 0.662 | 0.848 | 0.821 | 0.653 | 0.711 | 0.875 |
| NCI-H1993 | 0.91 | 0.86 | 0.804 | 0.933 | 0.593 | 0.57 | 0.595 |  | 0.688 | 0.831 | 1.11 | 1.13 |  | 1.09 | 0.681 | 1.05 | 1.01 |  | 0.928 | 0.749 |
| NCI-H2085 | 0.787 | 0.771 | 0.843 | 0.78 | 0.574 | 0.534 | 0.523 | 0.474 | 0.537 | 0.823 | 0.739 | 0.738 | 0.849 | 0.761 | 1.07 | 1 | 0.995 | 1.06 | 1 | 0.724 |
| NCI-H2087 | 1.04 | 1.05 | 0.926 | 0.98 | 0.329 | 0.272 | 0.326 | 0.243 | 0.235 | 0.674 | 0.563 | 0.524 | 0.53 | 0.637 | 1.42 | 1.43 | 1.34 | 1.64 | 1.47 | 0.976 |
| NCI-H2126 | 0.782 | 0.798 | 0.73 | 0.757 | 0.577 | 0.615 | 0.562 | 0.501 | 0.582 | 0.981 | 0.895 | 0.914 | 0.84 | 0.959 | 1.03 | 1.08 | 0.989 | 0.97 | 1.08 | 0.586 |
| NCI-H2170 | 0.291 | 0.281 | 0.272 | 0.257 | 0.469 | 0.495 | 0.477 |  | 0.459 | 0.589 | 0.587 | 0.67 |  | 0.59 | 0.803 | 0.904 | 0.987 |  | 0.827 |  |
| NCI-H2347 | 0.904 | 0.874 | 0.688 | 0.93 | 0.706 | 0.62 | 0.553 | 0.643 | 0.65 | 0.564 | 0.561 | 0.569 | 0.597 | 0.592 | 0.766 | 0.78 | 0.538 | 0.867 | 0.929 | 0.879 |
